Data on 29 compounds can be found in patent US10287295B2, “TGF-β inhibitors” (Rigel Pharmaceuticals, Inc., priority 2015, dated 2019).

For orientation: IC50 means the point on the concentration scale where inhibition reaches its midpoint.

Test [1] has as its system TGF-β signaling (TGF-β pSMAD, MPC-11). Description: AlphaScreen SureFire SMAD3 (p-Ser423/425) assay, inhibition of TGF-β signaling. The test is classed as cell-based. The settings on record: Mus musculus, MPC-11, inhibition of TGF-β signaling, p-SMAD3 readout.
Test [2] deals with GDF8 signaling (GDF pSMAD, MPC11). Put plainly: AlphaScreen SureFire SMAD3 (p-Ser423/425) assay, inhibition of GDF8 signaling. The test is classed as cell-based. The settings on record: Mus musculus, MPC-11, inhibition of GDF8 signaling, p-SMAD3 readout.

In the case of `Cc1nc(-c2cc(F)cc(F)c2)c(-c2ccc3[nH]ncc3c2)[nH]1` [Compound 148, 5-(4-(3,5-Difluorophenyl)-2-methyl-1H-imidazol-5-yl)-1H-indazole], the figures for the IC50 in test [1] and in test [2] were 2840 nM and 730 nM, respectively.

As for `CCc1nc(-c2cc(F)cc(F)c2)c(-c2ccc3ncsc3c2)[nH]1` [Compound 149, 6-(4-(3,5-Difluorophenyl)-2-ethyl-1H-imidazol-5-yl)benzo[d]thiazole], the figures for the IC50 in test [1] and in test [2] were 3220 nM and 720 nM, respectively.

`FC(F)(F)c1nc(-c2cccc(Cl)c2)c(-c2ccc3ncnn3c2)[nH]1` [Compound 150, 6-(4-(3-Chlorophenyl)-2-(trifluoromethyl)-1H-imidazol-5-yl)-[1,2,4]triazolo[1,5-a]pyridine]: the figures for the IC50 in test [1] and in test [2] were 850 nM and 350 nM, respectively.

Take `Fc1ccc(-c2nc(C(F)(F)F)[nH]c2-c2ccc3ncnn3c2)cc1` [Compound 151, 6-(4-(4-Fluorophenyl)-2-(trifluoromethyl)-1H-imidazol-5-yl)-[1,2,4]triazolo[1,5-a]pyridine]: the IC50 worked out at 1400 nM in test [1] and 590 nM in test [2].

Turning to `Cc1cccc(-c2nc(C(C)C)[nH]c2-c2ccc3ncnn3c2)c1` [Compound 152, 6-(2-Isopropyl-4-(m-tolyl)-1H-imidazol-5-yl)-[1,2,4]triazolo[1,5-a]pyridine], the IC50 is 380 nM in test [1] and 190 nM in test [2].

On to `Cc1cccc(-c2ncsc2-c2ccc3cn[nH]c3c2)c1` [Compound 153, 5-(1H-indazol-6-yl)-4-(m-tolyl)thiazole], for which the IC50 in test [1] came out at 207 nM; in test [2] it was 11.3 nM.

Consider `Cc1cccc(-c2ncsc2-c2ccc3[nH]ncc3c2)c1` [Compound 154, 5-(1H-indazol-5-yl)-4-(m-tolyl)thiazole], for which the IC50 in test [1] was 116 nM; in test [2] it was 14.5 nM.

Turning to `Cc1cc(-c2nc(N)sc2-c2ccc3nccn3c2)ccc1F` [Compound 155, 4-(4-fluoro-3-methylphenyl)-5-(imidazo[1,2-a]pyridin-6-yl)thiazol-2-amine], the results for the IC50 in test [1] and in test [2] were 72.4 nM and 22.9 nM, respectively.

Regarding `Cc1cc(-c2ncsc2-c2ccc3[nH]ncc3c2)ccc1F` [Compound 156, 4-(4-fluoro-3-methylphenyl)-5-(1H-indazol-5-yl)thiazole], the IC50 in test [1] was 134 nM; in test [2], 25.3 nM.

Turning to `COc1ccc(-c2nc(N)sc2-c2ccc3[nH]ncc3c2)cc1` [Compound 157, 5-(1H-indazol-5-yl)-4-(4-methoxyphenyl)thiazol-2-amine], the IC50 in test [1] was 160 nM; in test [2], 25.6 nM.

In the case of `Cc1cc(-c2nc(N)sc2-c2ccc3nccnc3c2)ccc1F` [Compound 158, 4-(4-fluoro-3-methylphenyl)-5-(quinoxalin-6-yl)thiazol-2-amine], the IC50 in test [1] was 228 nM; in test [2] it was 36 nM.

In the case of `Cc1cc(-c2ncsc2-c2ccc3cn[nH]c3c2)ccc1F` [Compound 159, 4-(4-fluoro-3-methylphenyl)-5-(1H-indazol-6-yl)thiazole], the IC50 in test [1] was found to be 171 nM; in test [2] it was 36.7 nM.

Turning to `Cc1cc(-c2nc(N)sc2-c2ccc3[nH]ncc3c2)ccc1F` [Compound 160, 4-(4-fluoro-3-methylphenyl)-5-(1H-indazol-5-yl)thiazol-2-amine], the IC50 in test [1] came to 99.8 nM; in test [2], 38.5 nM.

With `Cc1cccc(-c2ncsc2-c2ccc3ncsc3c2)c1` [Compound 161, 6-(4-(m-tolyl)thiazol-5-yl)benzo[d]thiazole], the IC50 in test [1] is 427 nM; in test [2] it was 46.8 nM.

As for `Cc1cc(-c2nc(N)sc2-c2ccc3ncsc3c2)ccc1F` [Compound 162, 5-(benzo[d]thiazol-6-yl)-4-(4-fluoro-3-methylphenyl)thiazol-2-amine], the IC50 in test [1] was determined as 127 nM; in test [2] it was 52.3 nM.

`COc1ccc(-c2nc(N)sc2-c2ccc3nccn3c2)cc1` [Compound 163, 5-(imidazo[1,2-a]pyridin-6-yl)-4-(4-methoxyphenyl)thiazol-2-amine]: the IC50 in test [1] stood at 168 nM; in test [2] it was 54 nM.

Turning to `Nc1nc(-c2cccc(Cl)c2)c(-c2ccc3nccn3c2)s1` [Compound 164, 4-(3-chlorophenyl)-5-(imidazo[1,2-a]pyridin-6-yl)thiazol-2-amine], the IC50 is 218 nM in test [1] and 66.3 nM in test [2].

For `Cc1cc(-c2ncsc2-c2ccc3ncsc3c2)ccc1F` [Compound 165, 6-(4-(4-fluoro-3-methylphenyl)thiazol-5-yl)benzo[d]thiazole], the IC50 in test [1] came to 262 nM; in test [2], 69.6 nM.

Regarding `Cc1cc(-c2ncsc2-c2ccc3nccn3c2)ccc1F` [Compound 167, 4-(4-fluoro-3-methylphenyl)-5-(imidazo[1,2-a]pyridin-6-yl)thiazole], the results for the IC50 in test [1] and in test [2] were 215 nM and 78 nM, respectively.

Turning to `Nc1nc(-c2cccc(Cl)c2)c(-c2ccc3[nH]ncc3c2)s1` [Compound 168, 4-(3-chlorophenyl)-5-(1H-indazol-5-yl)thiazol-2-amine], the IC50 in test [1] stood at 338 nM; in test [2], 80 nM.

Regarding `Nc1nc(-c2cccc(Cl)c2)c(-c2ccc3nccnc3c2)s1` [Compound 169, 4-(3-chlorophenyl)-5-(quinoxalin-6-yl)thiazol-2-amine], the IC50 in test [1] stood at 236 nM; in test [2] it was 95.1 nM.

With `Nc1nc(-c2ccc(F)cc2)c(-c2ccc3nccnc3c2)s1` [Compound 170, 4-(4-fluorophenyl)-5-(quinoxalin-6-yl)thiazol-2-amine], the IC50 amounted to 656 nM in test [1] and 98.6 nM in test [2].

As for `Nc1nc(-c2cccc(C(F)(F)F)c2)c(-c2ccc3nccn3c2)s1` [Compound 171, 5-(imidazo[1,2-a]pyridin-6-yl)-4-(3-(trifluoromethyl)phenyl)thiazol-2-amine], the IC50 worked out at 423 nM in test [1] and 109 nM in test [2].

On to `Nc1nc(-c2cccc(Cl)c2)c(-c2ccc3cn[nH]c3c2)s1` [Compound 172, 4-(3-chlorophenyl)-5-(1H-indazol-6-yl)thiazol-2-amine], for which the IC50 amounted to 909 nM in test [1] and 121 nM in test [2].

Turning to `COc1ccc(-c2nc(N)sc2-c2ccc3cn[nH]c3c2)cc1` [Compound 173, 5-(1H-indazol-6-yl)-4-(4-methoxyphenyl)thiazol-2-amine], the IC50 worked out at 898 nM in test [1] and 124 nM in test [2].

Regarding `Cc1cc(-c2nc(N)sc2-c2ccc3cn[nH]c3c2)ccc1F` [Compound 174, 4-(4-fluoro-3-methylphenyl)-5-(1H-indazol-6-yl)thiazol-2-amine], the IC50 in test [1] is 431 nM; in test [2] it was 144 nM.

Regarding `Nc1nc(-c2cccc(C(F)(F)F)c2)c(-c2ccc3[nH]ncc3c2)s1` [Compound 175, 5-(1H-indazol-5-yl)-4-(3-(trifluoromethyl)phenyl)thiazol-2-amine], the 50% inhibitory concentration (IC50) amounted to 938 nM in test [1] and 154 nM in test [2].

As to `Nc1nc(-c2cccc(C(F)(F)F)c2)c(-c2ccc3ncsc3c2)s1` [Compound 176, 5-(benzo[d]thiazol-6-yl)-4-(3-(trifluoromethyl)phenyl)thiazol-2-amine], the IC50 stood at 600 nM in test [1] and 158 nM in test [2].

For the compound `COc1cccc(-c2nc(N)sc2-c2ccc3[nH]ncc3c2)c1` [Compound 177, 5-(1H-indazol-5-yl)-4-(3-methoxyphenyl)thiazol-2-amine], the IC50 was 1040 nM in test [1] and 234 nM in test [2].
